Reference: patent US6423689B1, “Peptidyl calcium channel blockers” (Warner-Lambert Company, priority 1997, dated 2002)

Legend:
[1] = target: T1, N-type Ca2+ channels in superior cervical ganglion (SCG) neurons (Rattus norvegicus, UniProt Q02294); assay: Whole-cell voltage clamp, N-type Ca2+ current in SCG neurons; assay type: cell-based; conditions: for IC50: read-out: Inhibition of N-type Ca2+ Current IC50
T1 construct: from tissue
Protocol: (§1) Electrophysiological techniques were used to measure the effects of experimental compounds on voltage-gated Ca^2+, Na^+ and K^+ channels. […] Sodium and potassium channel currents were measured from acutely dissociated SCG neurons.
(§2) Dissociation of the neurons from the ganglia was accomplished using a 30 to 45 minute treatment in 0.25% trypsin, similar to methods outlined in Higgins, et al. [see Higgins D., et al. “Tissue culture of mammalian autonomic neurons.” In Banker G. and Goslin K. (Eds), Culturing Nerve Cells, Cambridge, Mass., MIT Press (1991)].
(§3) Ca^2+, Na^+ and K^+ channel currents in SCG neurons were measured using conventional single electrode whole-cell voltage-clamp techniques, outlined in Hamill, et al., (see Hamill O.P., et al. “Improved patch-clamp techniques for high resolution current recordings from cells and cell-free membrane patches”. Pflugers Arch. 1981;391:85-100) For Ca^2+ channel experiments, the external bathing solution contained tetraethylammonium chloride (100 mM), choline chloride (52 mM), NaCl (15 mM), HEPES (10 mM), glucose (5.6 mM), CaCl2 (2 mM), and MgCl2 (0.8 mM) pH 7.35 with KOH; with the internal pipette solution containing cesium methane sulfonate (140 mM), EGTA (10 mM), and HEPES (10 mM), supplemented with 5 mM Mg^2+ -ATP on the day of the experiment, pH 7.4 with CsOH. For Na^+ and K^+ channel experiments, the external bathing solution contained NaCl (150 mM), KCl (5 mM), MgCl2 (1.1 mM), CaCl2 (2.6 mM), Na-HEPES (10 mM), and glucose (10 mM), pH 7.4; with the internal pipette solution containing KCl (80 mM), K-gluconate (50 mM), HEPES (10 mM), and EGTA (10 mM), pH 7.4 with KOH. Experimental compounds were diluted into the external solution and applied to the soma of cells by local perfusion from large diameter (20-50 μm) glass micropipettes or from a U-tube applicator.
After obtaining a whole-cell recording, Ca^2+ channels were elicited by stepping to test potentials between −40 and +20 mV for 120 msec from the holding potential of −90 mV to determine if the amplitude of the current and clamp control were adequate for evaluation of drug effects. Ca^2+ channel currents were evoked by stepping from a holding potentials between −65 mV and −−55 mV to a test potential of +20 mV for 150 msec every 40 seconds. The amplitude of the Ca^2+ channel currents were compared before and during drug application and drug effects expressed as percent inhibition of the amplitude of control currents.

[2] = target: T2, N-type Ca2+ channels in IMR-32 cells (Homo sapiens, UniProt Q00975); assay: Inhibition of N-type calcium flux in IMR-32 cells (Indo-1 fluorescence, nitrendipine present); assay type: cell-based; conditions: for IC50: IMR-32 cells, 5 μM nitrendipine, K+ depolarization; for inhibition at 1 µM / inhibition at 10 µM: IMR-32
T2 construct: host or cells: IMR-32 cells, differentiated with dibutyryl cAMP and bromodeoxyuridine
How it was run: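 With L-type flux blocked by 5 μM nitrendipine, N-type Ca2+ entry was read as the Indo-1 emission ratio (400/490 nm, excitation 350 nm) at 30° C after KCl depolarization.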

[3] = tested on: K+ channels in superior cervical ganglion (SCG) neurons; assay: Whole-cell voltage clamp, K+ current in SCG neurons; assay type: cell-based, rat
Protocol: as §1, §2, §3
(§4) For Na^+ and K^+ channel currents, following the determination of the I/V relationship for each cell in control solution, currents were evoked from a holding potential between −65 and −55 mV by stepping every 10 sec to a test potential of either 0 mV for Na^+ or +50 mV for K^+ current for a duration of 35 msec. Peak inward current was measured for Na^+ and sustained current for K^+ channel currents. […] Test compounds were applied until steady-state block was achieved. Data were expressed as percent inhibition of control amplitudes for Na^+ and K^+ channel currents.

[4] = tested on: Na+ channels in superior cervical ganglion (SCG) neurons; assay: Whole-cell voltage clamp, Na+ current in SCG neurons; assay type: cell-based, rat; conditions: for IC50: read-out: Inhibition of Na+ Current IC50
Protocol: as §1, §2, §3, §4

T1 sequence (Q02294 whole entry): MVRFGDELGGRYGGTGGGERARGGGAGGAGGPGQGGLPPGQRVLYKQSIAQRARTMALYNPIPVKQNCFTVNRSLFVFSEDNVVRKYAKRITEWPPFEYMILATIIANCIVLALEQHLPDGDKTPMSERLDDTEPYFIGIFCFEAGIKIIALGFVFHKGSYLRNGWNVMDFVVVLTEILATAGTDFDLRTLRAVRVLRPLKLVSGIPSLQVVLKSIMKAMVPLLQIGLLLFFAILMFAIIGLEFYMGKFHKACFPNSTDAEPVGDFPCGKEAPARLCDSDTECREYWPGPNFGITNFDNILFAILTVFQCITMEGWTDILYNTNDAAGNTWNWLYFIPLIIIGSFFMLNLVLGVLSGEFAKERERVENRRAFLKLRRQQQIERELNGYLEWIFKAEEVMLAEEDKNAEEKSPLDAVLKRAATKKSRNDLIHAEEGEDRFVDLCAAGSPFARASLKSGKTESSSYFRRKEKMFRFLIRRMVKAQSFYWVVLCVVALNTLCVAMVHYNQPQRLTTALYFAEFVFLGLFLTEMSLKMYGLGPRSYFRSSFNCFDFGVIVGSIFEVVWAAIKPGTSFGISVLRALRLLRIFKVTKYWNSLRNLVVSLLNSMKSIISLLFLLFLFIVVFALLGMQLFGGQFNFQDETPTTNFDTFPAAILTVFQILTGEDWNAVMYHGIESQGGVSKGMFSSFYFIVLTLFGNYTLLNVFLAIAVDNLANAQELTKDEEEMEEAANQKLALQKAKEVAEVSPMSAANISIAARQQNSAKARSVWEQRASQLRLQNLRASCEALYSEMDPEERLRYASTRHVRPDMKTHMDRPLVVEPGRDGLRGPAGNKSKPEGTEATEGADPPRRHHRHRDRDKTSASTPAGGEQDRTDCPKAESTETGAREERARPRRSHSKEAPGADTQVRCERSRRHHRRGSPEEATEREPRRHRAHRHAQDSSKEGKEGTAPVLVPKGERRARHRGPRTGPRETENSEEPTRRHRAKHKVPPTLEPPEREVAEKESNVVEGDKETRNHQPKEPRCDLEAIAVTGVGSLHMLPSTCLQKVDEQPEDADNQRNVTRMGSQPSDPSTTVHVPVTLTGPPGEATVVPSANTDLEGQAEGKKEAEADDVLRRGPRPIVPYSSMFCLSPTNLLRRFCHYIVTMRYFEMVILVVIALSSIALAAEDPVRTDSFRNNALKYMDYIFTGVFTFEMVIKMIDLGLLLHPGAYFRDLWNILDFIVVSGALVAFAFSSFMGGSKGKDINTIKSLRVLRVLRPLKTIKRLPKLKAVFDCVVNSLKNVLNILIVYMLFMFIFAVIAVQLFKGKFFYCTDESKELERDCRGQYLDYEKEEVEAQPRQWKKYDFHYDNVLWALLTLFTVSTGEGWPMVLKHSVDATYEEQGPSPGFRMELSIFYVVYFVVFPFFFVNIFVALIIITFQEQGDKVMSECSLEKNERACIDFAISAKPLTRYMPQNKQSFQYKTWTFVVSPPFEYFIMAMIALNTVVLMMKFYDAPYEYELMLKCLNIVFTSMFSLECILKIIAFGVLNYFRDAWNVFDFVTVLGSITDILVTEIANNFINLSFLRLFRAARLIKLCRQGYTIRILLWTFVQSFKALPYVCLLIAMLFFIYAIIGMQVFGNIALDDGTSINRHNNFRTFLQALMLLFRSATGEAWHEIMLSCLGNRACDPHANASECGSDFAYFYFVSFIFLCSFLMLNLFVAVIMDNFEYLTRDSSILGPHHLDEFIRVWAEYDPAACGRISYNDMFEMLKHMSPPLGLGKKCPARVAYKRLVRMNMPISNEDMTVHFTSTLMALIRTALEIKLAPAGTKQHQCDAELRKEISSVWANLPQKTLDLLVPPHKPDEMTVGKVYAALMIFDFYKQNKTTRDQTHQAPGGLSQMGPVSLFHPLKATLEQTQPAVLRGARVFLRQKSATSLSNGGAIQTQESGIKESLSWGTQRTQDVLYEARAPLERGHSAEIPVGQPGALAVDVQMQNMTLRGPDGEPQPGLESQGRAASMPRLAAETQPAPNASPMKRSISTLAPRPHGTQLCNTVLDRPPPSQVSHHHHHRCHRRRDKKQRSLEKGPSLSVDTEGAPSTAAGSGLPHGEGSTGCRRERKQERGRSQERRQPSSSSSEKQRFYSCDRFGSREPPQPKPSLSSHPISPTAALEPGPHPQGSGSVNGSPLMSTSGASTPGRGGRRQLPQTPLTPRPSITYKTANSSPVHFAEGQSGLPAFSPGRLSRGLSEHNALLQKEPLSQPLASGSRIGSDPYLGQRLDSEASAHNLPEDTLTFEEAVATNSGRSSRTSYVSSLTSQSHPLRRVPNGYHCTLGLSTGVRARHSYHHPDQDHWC
T1 sequence (P54290 25-944 partner limits assumed): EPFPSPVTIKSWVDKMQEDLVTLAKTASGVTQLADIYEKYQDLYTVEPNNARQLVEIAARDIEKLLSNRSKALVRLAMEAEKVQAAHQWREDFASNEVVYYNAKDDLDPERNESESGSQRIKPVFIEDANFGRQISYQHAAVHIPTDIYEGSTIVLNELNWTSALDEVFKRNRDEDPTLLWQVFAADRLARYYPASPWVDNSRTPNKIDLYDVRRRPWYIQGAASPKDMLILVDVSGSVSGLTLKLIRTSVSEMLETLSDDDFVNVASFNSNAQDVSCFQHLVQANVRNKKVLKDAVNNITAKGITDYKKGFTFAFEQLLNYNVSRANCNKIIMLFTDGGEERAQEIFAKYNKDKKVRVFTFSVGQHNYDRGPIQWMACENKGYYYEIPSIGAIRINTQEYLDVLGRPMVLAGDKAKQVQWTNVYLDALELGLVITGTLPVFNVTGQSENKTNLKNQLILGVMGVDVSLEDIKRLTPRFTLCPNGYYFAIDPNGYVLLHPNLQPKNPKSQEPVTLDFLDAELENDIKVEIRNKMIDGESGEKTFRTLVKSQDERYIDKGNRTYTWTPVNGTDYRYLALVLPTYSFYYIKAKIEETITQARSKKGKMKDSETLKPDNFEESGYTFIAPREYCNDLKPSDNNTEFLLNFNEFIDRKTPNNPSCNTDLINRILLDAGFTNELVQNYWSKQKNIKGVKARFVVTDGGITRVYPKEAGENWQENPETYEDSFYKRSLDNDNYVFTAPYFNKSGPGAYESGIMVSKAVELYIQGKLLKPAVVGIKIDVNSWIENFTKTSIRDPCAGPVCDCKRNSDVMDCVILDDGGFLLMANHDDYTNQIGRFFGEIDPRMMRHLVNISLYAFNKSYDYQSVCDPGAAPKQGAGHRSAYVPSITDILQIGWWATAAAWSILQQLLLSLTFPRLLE
T1 sequence (P54290 945-1091 partner limits assumed): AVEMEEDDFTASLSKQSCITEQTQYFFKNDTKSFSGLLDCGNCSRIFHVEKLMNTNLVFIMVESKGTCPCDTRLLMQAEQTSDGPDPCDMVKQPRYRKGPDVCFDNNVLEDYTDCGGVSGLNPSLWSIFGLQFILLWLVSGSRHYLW
T1 sequence (P54287 whole entry partner): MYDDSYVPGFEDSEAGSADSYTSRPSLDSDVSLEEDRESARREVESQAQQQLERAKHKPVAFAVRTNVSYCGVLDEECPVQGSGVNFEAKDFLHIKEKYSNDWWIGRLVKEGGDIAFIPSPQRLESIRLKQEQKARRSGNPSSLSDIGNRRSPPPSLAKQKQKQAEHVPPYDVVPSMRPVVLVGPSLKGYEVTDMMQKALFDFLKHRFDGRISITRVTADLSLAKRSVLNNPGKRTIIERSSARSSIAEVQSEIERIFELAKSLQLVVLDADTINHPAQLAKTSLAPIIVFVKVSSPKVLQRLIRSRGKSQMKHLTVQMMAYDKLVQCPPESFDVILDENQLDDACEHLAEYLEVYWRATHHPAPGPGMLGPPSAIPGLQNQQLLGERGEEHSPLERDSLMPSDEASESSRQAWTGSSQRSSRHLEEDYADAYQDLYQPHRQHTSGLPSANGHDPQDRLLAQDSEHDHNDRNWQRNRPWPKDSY

Row | Inhibition of N-type Ca2+ Current, % Inhibition at 10 μM ([1]; 10 μM) | Inhibition of Calcium Flux in IMR-32 Cells % Inhibition at 1 μM ([2]; 1 μM) | IC50 [2] | inhibition at 10 µM ([1]; 10 μM) | inhibition at 1 µM [2] | inhibition at 10 µM [2] | IC50 [1] | IC50 ([3]; read-out: Inhibition of K+ Current IC50) | IC50 [4] | SMILES | Inhibition of K+ Current, % Inhibition at 10 μM [3] | Inhibition of Na+ Current, % Inhibition at 10 μM [4]
1 | 81% | 55% | 0.82 µM |  |  |  |  |  |  | CC(C)C[C@H](NC(=O)N1CCCCCC1)C(=O)N[C@@H](Cc1ccc(OCc2ccccc2)cc1)C(=O)N1CCN(Cc2ccccc2)CC1 (relative stereo) [Example 180, [S-(R*,R*)]-Azepane-1-carboxylic acid {1-[1-(4-benzyloxy-benzyl)-2-(4-benzyl-piperazin-1-yl)-2-oxo-ethylcarbamoyl]-3-methyl-butyl}-amide] | 60% | 20%
2 |  |  | 1.7 µM | 32% | 38% | 90% |  |  |  | CC(C)C[C@H](NC(=O)N1CCCCCC1)C(=O)N[C@H](Cc1ccc(OCc2ccccc2)cc1)C(=O)OC(C)(C)C [Example 2, 2(R)-{2(S)-[(Azepane-1-carbonyl)-amino]-4-methyl-pentanoylamino}-3-(4-benzyloxy-phenyl)-propionic acid tert-butyl ester] | 41% | 35%
3 |  |  | 0.99 µM | 69% | 53% | 90% |  |  |  | CC(C)C[C@@H](NC(=O)N1CCCCCC1)C(=O)N[C@@H](Cc1ccc(OCc2ccccc2)cc1)C(=O)OC(C)(C)C [Example 3, 2(S)-{2(R)-[(Azepane-1-carbonyl)-amino]-4-methyl-pentanoylamino}-3-(4-benzyloxy-phenyl)-propionic acid tert-butyl ester] | 39% | 12%
4 |  |  | 0.9 µM | 51% | 51% | 90% |  |  |  | CC(C)C[C@@H](NC(=O)N1CCCCCC1)C(=O)N[C@H](Cc1ccc(OCc2ccccc2)cc1)C(=O)OC(C)(C)C [Example 4, [R-(R*,R*)]-2-{2-(Azepane-1-carbonyl)-amino]-4-methyl-pentanoylamino}-3-(4-benzyloxy-phenyl)-propionic acid tert-butyl ester] | 38% | 13%
5 |  |  | 0.53 µM | 47% | 61% | 88% |  |  |  | CC(C)CC(NC(=O)N1CCCCCC1)C(=O)NC(C)(Cc1ccc(OCc2ccccc2)cc1)C(=O)OC(C)(C)C (stereo not drawn) [Example 11A, [S-(R*,R*)]-2-{2-[(Azepane-1-carbonyl)-amino]-4-methyl-pentanoylamino}-3-(4-benzyloxy-phenyl)-2-methyl-propionic acid tert-butyl ester] | 47% | 11%
6 |  |  | 0.63 µM | 38% | 56% | 83% |  |  |  | CC(C)C[C@H](NC(=O)N1CCCCCC1)C(=O)N[C@@H](Cc1ccc(OCC2CCCCC2)cc1)C(=O)OC(C)(C)C [Example 30, [S-(R*,R*)]-2-{2-[(Azepane-1-carbonyl)-amino]-4-methyl-pentanoylamino}-3-(4-cyclohexylmethoxy-phenyl)-propionic acid tert-butyl ester] | 8% | 19%
7 |  |  | 1.85 µM | 68% | 28% | 85% | 3.34 µM | 12.4 µM | 185 µM | CC(C)C[C@H](NC(=O)N1CCCCCC1)C(=O)N[C@@H](Cc1ccc(OCc2cccnc2)cc1)C(=O)OC(C)(C)C [Example 31, [S-(R*,R*)]-2-{2-[(Azepane-1-carbonyl)-amino]-4-methyl-pentanoylamino}-3-[4-(pyridin-3-ylmethoxy)-phenyl]-propionic acid tert-butyl ester] | 41% | 21%
8 |  |  | 0.83 µM | 28% |  |  |  |  |  | CC(C)(C)C[C@H](NC(=O)N1CCCCCC1)C(=O)N[C@@H](Cc1ccc(OCc2ccccc2)cc1)C(=O)NCCN1CCCCC1 [Example 159, [S-(R*,R*)]-Azepane-1-carboxylic acid {1-[2-(4-benzyloxy-phenyl)-1-(2-piperidin-1-ylethylcarbamoyl)-ethylcarbamoyl]-3,3-dimethyl-butyl}-amide] | 46% | 30%
9 |  |  | 0.96 µM | 47% |  |  |  |  |  | O=C(NCCN1CCCCC1)[C@H](Cc1ccc(OCc2ccccc2)cc1)NC(=O)[C@H](CC1CCCCC1)NC(=O)N1CCCCCC1 [Example 162, [S-(R*,R*)]-Azepane-1-carboxylic acid {1-[2-(4-benzyloxy-phenyl)-1-(2-piperidin-1-ylethylcarbamoyl)-ethylcarbamoyl]-2-cyclohexyl-ethyl}-amide] | 40% | 32%
10 |  |  | 3.6 µM | 84% |  |  | 2.33 µM |  | 6.9 µM | CC(C)C[C@H](NC(=O)N1CCCCCC1)C(=O)N[C@@H](Cc1ccc(OCc2ccccc2)cc1)C(=O)NCCO [Example 165, [S-(R*,R*)]-Azepane-1-carboxylic acid {1-[2-(4-benzyloxy-phenyl)-1-(2-hydroxy-ethylcarbamoyl)-ethylcarbamoyl]-3-methyl-butyl}-amide] | 86% | 46%
11 |  |  | 0.53 µM | 4% | 58% |  |  |  |  | CC(C)C[C@H](NC(=O)N1CCCCCC1)C(=O)N[C@@H](Cc1ccc(OCc2ccccc2)cc1)C(=O)N1CCCCC1 [Example 167, [S-(R*,R*)]-Azepane-1-carboxylic acid {1-[1-(4-benzyloxy-benzyl)-2-oxo-2-piperidin-1-ylethylcarbamoyl]-3-methyl-butyl}-amide] | 8% | −2%
12 |  |  | 2.9 µM | 87% |  |  | 2.03 µM |  |  | CC(C)C[C@H](NC(=O)N1CCOCC1)C(=O)N[C@@H](Cc1ccc(OCc2ccccc2)cc1)C(=O)NCCN1CCCCC1 [Example 177, [S-(R*,R*)]-Morpholine-4-carboxylic acid {1-[2-(4-benzyloxy-phenyl)-1-(2-piperidin-1-ylethylcarbamoyl)-ethylcarbamoyl]-3-methyl-butyl}-amide] | 68% | 31%

Row | SMILES | Inhibition of N-type Ca2+ Current, % Inhibition at 10 μM ([1]; 10 μM) | Inhibition of Calcium Flux in IMR-32 Cells % Inhibition at 1 μM ([2]; 1 μM) | IC50 [2] | inhibition at 10 µM ([1]; 10 μM) | inhibition at 1 µM [2] | inhibition at 10 µM [2] | IC50 [1] | IC50 ([3]; read-out: Inhibition of K+ Current IC50) | IC50 [4] | Inhibition of K+ Current, % Inhibition at 10 μM [3] | Inhibition of Na+ Current, % Inhibition at 10 μM [4]
13 | CC(C)C[C@H](NC(=O)N1CCCCCC1)C(=O)N[C@@H](Cc1ccc(OCc2cccc(NC(=O)OC(C)(C)C)c2)cc1)C(=O)OC(C)(C)C [Example 28, [S-(R*,R*)]-2-{2-[(Azepane-1-carbonyl)-amino]-4-methyl-pentanoylamino}-3-[4-(3-tert-butoxycarbonylamino-benzyloxy)-phenyl]-propionic acid tert-butyl ester] |  |  | 1.8 µM | 40% | 42% | 65% |  |  |  | 11% | 5%
